Patent US20240208968A1, “ALPHA V BETA 6 AND ALPHA V BETA 1 INTEGRIN INHIBITORS AND USES THEREOF” (DiCE Molecules SV, Inc., priority 2021, published 2024)
Structures can show the parent of a compound that is named as a salt.

Assays:
αvβ6 = αvβ6 (Homo sapiens, UniProt P06756+P18564); assay: Solid Phase Integrin αvβ6 Assay; format: binding
In short: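 Plates coated with 1 μg/mL recombinant TGFb1-LAP; compounds and αvβ6 (0.2 μg/mL diluted stock) incubated 1 h at room temperature in 2% BSA/TBST with 1 mM MnCl2. Bound integrin detected with streptavidin-HRP and TMB; IC50 from four-parameter logistic fits.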

αvβ1 = αvβ1 (Homo sapiens, UniProt P05556+P06756); assay: Solid Phase Integrin αvβ1 Assay; format: binding
αvβ1, sequence (P06756 31-992 limits assumed): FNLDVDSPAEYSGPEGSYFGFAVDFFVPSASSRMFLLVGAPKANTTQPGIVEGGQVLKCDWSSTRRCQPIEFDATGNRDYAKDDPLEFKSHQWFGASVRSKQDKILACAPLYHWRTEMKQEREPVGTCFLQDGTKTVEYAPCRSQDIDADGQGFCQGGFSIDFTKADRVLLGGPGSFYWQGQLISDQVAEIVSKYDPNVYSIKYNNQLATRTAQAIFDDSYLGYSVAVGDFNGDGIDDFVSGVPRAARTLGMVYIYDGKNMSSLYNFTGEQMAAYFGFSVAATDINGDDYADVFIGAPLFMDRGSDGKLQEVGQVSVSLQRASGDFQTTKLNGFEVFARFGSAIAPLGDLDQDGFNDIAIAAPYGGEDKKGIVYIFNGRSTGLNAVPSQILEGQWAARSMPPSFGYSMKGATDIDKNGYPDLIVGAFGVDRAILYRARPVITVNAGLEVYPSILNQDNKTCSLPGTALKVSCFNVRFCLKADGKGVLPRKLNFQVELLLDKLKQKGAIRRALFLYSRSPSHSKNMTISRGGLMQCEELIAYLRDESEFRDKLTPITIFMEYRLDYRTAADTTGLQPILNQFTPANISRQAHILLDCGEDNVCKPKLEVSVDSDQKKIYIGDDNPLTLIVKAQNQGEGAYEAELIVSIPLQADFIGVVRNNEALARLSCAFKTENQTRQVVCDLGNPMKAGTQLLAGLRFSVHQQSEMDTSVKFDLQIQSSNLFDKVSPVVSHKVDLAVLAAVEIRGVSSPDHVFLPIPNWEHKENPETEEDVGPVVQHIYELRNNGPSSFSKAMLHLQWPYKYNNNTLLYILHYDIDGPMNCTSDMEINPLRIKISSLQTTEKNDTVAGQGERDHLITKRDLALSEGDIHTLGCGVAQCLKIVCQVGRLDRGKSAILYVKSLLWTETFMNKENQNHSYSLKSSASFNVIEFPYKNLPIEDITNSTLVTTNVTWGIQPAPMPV
αvβ1, sequence (P05556 21-728 limits assumed): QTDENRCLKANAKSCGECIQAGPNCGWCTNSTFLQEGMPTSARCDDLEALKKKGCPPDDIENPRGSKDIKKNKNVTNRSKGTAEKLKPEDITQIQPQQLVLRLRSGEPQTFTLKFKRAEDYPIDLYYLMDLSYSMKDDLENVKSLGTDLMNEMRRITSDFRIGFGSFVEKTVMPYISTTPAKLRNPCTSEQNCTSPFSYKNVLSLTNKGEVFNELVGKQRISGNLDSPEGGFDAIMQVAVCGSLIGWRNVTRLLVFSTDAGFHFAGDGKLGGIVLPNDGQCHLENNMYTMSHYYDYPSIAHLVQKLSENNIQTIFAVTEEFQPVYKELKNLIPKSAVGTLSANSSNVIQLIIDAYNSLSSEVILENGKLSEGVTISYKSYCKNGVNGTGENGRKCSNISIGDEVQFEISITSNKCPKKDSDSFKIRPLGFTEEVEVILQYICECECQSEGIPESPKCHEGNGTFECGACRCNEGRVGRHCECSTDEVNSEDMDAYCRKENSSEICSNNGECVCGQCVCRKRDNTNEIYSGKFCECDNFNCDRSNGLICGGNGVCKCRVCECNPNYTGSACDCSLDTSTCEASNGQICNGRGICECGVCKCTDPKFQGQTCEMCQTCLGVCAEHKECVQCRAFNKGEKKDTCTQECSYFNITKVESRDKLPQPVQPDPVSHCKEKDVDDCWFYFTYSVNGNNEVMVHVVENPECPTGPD
In short: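 Wells coated with 1 µg/mL recombinant TGFb1-LAP and blocked with 2% BSA/TBST, 1 mM MnCl2; αvβ1 (added at 0.2 µg/mL) and compound incubated 90 min at room temperature. Bound integrin detected by streptavidin-HRP (20 min) and TMB after Mn-containing washes; IC50 by four-parameter logistic fit.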

αvβ6, sequence (P06756 31-992 limits assumed): as the sequence (P06756 31-992 limits assumed) above
αvβ6, sequence (P18564 22-707 limits assumed): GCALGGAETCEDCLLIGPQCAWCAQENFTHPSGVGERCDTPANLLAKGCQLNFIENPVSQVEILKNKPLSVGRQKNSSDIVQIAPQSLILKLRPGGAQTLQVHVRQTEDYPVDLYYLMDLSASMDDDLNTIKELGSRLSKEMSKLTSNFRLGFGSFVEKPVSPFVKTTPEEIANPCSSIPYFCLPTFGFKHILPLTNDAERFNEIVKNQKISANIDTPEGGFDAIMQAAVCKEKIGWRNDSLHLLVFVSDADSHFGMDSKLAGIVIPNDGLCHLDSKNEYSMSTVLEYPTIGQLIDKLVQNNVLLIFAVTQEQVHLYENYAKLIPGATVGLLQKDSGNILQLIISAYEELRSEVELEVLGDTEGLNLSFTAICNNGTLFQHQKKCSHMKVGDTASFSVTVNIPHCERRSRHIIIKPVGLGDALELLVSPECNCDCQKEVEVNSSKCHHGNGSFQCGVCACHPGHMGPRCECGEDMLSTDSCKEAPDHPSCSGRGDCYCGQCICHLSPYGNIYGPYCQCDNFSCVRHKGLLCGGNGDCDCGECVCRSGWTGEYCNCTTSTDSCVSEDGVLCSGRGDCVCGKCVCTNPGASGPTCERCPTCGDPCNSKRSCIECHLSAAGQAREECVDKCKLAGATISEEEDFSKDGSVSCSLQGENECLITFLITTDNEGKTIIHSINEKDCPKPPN

| Compound | IC50 (αvβ6) [nM] | IC50 (αvβ1) [nM] |
| --- | --- | --- |
| CC1(C)CCN(c2cccc([C@H](CC(=O)O)NC(=O)[C@@H]3CCCN(CCCc4ccc5c(n4)NCCC5)C3)c2)CC1 [Compound 237, (S)-3-(3-(4,4-dimethylpiperidin-1-yl)phenyl)-3-((R)-1-(3-(5,6,7,8-tetrahydro-1,8-naphthyridin-2-yl)propyl)piperidine-3-carboxamido)propanoic acid] | < 100 | < 100 |
| Cc1ccn(-c2cccc([C@H](CC(=O)O)NC(=O)[C@@H]3CCCN(CCCc4ccc5c(n4)NCCC5)C3)c2)n1 [Compound 238, (S)-3-(3-(3-methyl-1H-pyrazol-1-yl)phenyl)-3-((R)-1-(3-(5,6,7,8-tetrahydro-1,8-naphthyridin-2-yl)propyl)piperidine-3-carboxamido)propanoic acid] | < 100 | < 100 |
| O=C(O)C[C@H](NC(=O)[C@@H]1CCCN(CCCc2ccc3c(n2)NCCC3)C1)c1cccc(N2CCCC2=O)c1 [Compound 239, (S)-3-(3-(2-oxopyrrolidin-1-yl)phenyl)-3-((R)-1-(3-(5,6,7,8-tetrahydro-1,8-naphthyridin-2-yl)propyl)piperidine-3-carboxamido)propanoic acid] | < 100 | < 100 |
| O=C(O)C[C@H](NC(=O)[C@@H]1CCCN(CCCc2ccc3c(n2)NCCC3)C1)c1cccc(-c2ccccc2)c1 [Compound 240, (S)-3-([1,1′-biphenyl]-3-yl)-3-((R)-1-(3-(5,6,7,8-tetrahydro-1,8-naphthyridin-2-yl)propyl)piperidine-3-carboxamido)propanoic acid hydrochloride] | < 100 | < 100 |
| CC1(C)CN(c2cccc([C@H](CC(=O)O)NC(=O)[C@@H]3CCCN(CCCc4ccc5c(n4)NCCC5)C3)c2)CC(C)(C)O1 [Compound 242, (S)-3-((R)-1-(3-(5,6,7,8-tetrahydro-1,8-naphthyridin-2-yl)propyl)piperidine-3-carboxamido)-3-(3-(2,2,6,6-tetramethylmorpholino)phenyl)propanoic acid] | < 100 | < 100 |
| O=C(O)C[C@H](NC(=O)[C@@H]1CCCN(CCCc2ccc3c(n2)NCCC3)C1)c1ccc(F)c(C2CC2)c1 [Compound 244-A, 3-(3-cyclopropyl-4-fluorophenyl)-3-((R)-1-(3-(5,6,7,8-tetrahydro-1,8-naphthyridin-2-yl)propyl)piperidine-3-carboxamido)propanoic acid] | < 100 | < 100 |
| O=C(O)C[C@@H](NC(=O)[C@@H]1CCCN(CCCc2ccc3c(n2)NCCC3)C1)c1ccc(F)c(C2CC2)c1 [Compound 244-B, 3-(3-cyclopropyl-4-fluorophenyl)-3-((R)-1-(3-(5,6,7,8-tetrahydro-1,8-naphthyridin-2-yl)propyl)piperidine-3-carboxamido)propanoic acid] | < 100 | < 100 |
| O=C(O)C[C@H](NC(=O)[C@@H]1CCCN(CCCc2ccc3c(n2)NCCC3)C1)c1cc(C2CC2)ccc1F [Compound 245-A, 3-(5-cyclopropyl-2-fluorophenyl)-3-((R)-1-(3-(5,6,7,8-tetrahydro-1,8-naphthyridin-2-yl)propyl)piperidine-3-carboxamido)propanoic acid] | < 100 | 100 to 1000 |
| O=C(O)C[C@@H](NC(=O)[C@@H]1CCCN(CCCc2ccc3c(n2)NCCC3)C1)c1cc(C2CC2)ccc1F [Compound 245-B, 3-(5-cyclopropyl-2-fluorophenyl)-3-((R)-1-(3-(5,6,7,8-tetrahydro-1,8-naphthyridin-2-yl)propyl)piperidine-3-carboxamido)propanoic acid] | < 100 | < 100 |
| O=C(NC[C@@H](C(=O)O)c1ccccc1)[C@@H]1CCCN(CCCc2ccc3c(n2)NCCC3)C1 [Compound 246, (S)-2-phenyl-3-((R)-1-(3-(5,6,7,8-tetrahydro-1,8-naphthyridin-2-yl)propyl)piperidine-3-carboxamido)propanoic acid] | < 100 | < 100 |
| O=C(NC[C@H](C(=O)O)c1ccccc1)[C@@H]1CCCN(CCCc2ccc3c(n2)NCCC3)C1 [Compound 247, (R)-2-phenyl-3-((R)-1-(3-(5,6,7,8-tetrahydro-1,8-naphthyridin-2-yl)propyl)piperidine-3-carboxamido)propanoic acid] | < 100 | < 100 |
| O=C(NC[C@H](C(=O)O)c1ccc2c(c1)CCCC2)[C@@H]1CCCN(CCCc2ccc3c(n2)NCCC3)C1 [Compound 248-A, 3-((R)-1-(3-(5,6,7,8-tetrahydro-1,8-naphthyridin-2-yl)propyl)piperidine-3-carboxamido)-2-(5,6,7,8-tetrahydronaphthalen-2-yl)propanoic acid] | 100 to 1000 | 100 to 1000 |
| O=C(NC[C@@H](C(=O)O)c1ccc2c(c1)CCCC2)[C@@H]1CCCN(CCCc2ccc3c(n2)NCCC3)C1 [Compound 248-B, 3-((R)-1-(3-(5,6,7,8-tetrahydro-1,8-naphthyridin-2-yl)propyl)piperidine-3-carboxamido)-2-(5,6,7,8-tetrahydronaphthalen-2-yl)propanoic acid] | < 100 | < 100 |
| O=C(NC[C@H](C(=O)O)c1ccc2ccccc2c1)[C@@H]1CCCN(CCCc2ccc3c(n2)NCCC3)C1 [Compound 249-A, 2-(naphthalen-2-yl)-3-((R)-1-(3-(5,6,7,8-tetrahydro-1,8-naphthyridin-2-yl)propyl)piperidine-3-carboxamido)propanoic acid] | < 100 | < 100 |
| O=C(NC[C@@H](C(=O)O)c1ccc2ccccc2c1)[C@@H]1CCCN(CCCc2ccc3c(n2)NCCC3)C1 [Compound 249-B, 2-(naphthalen-2-yl)-3-((R)-1-(3-(5,6,7,8-tetrahydro-1,8-naphthyridin-2-yl)propyl)piperidine-3-carboxamido)propanoic acid] | < 100 | < 100 |
| O=C(NC[C@@H](C(=O)O)c1cccc2ccccc12)[C@@H]1CCCN(CCCc2ccc3c(n2)NCCC3)C1 [Compound 250-A, 2-(naphthalen-1-yl)-3-((R)-1-(3-(5,6,7,8-tetrahydro-1,8-naphthyridin-2-yl)propyl)piperidine-3-carboxamido)propanoic acid] | < 100 | < 100 |
| O=C(NC[C@H](C(=O)O)c1cccc2ccccc12)[C@@H]1CCCN(CCCc2ccc3c(n2)NCCC3)C1 [Compound 250-B, 2-(naphthalen-1-yl)-3-((R)-1-(3-(5,6,7,8-tetrahydro-1,8-naphthyridin-2-yl)propyl)piperidine-3-carboxamido)propanoic acid] | > 1000 | 100 to 1000 |
| O=C(NC[C@@H](C(=O)O)c1cccc(Oc2ccccc2)c1)[C@@H]1CCCN(CCCc2ccc3c(n2)NCCC3)C1 [Compound 251-A] | 100 to 1000 | 100 to 1000 |
| O=C(NC[C@H](C(=O)O)c1cccc(Oc2ccccc2)c1)[C@@H]1CCCN(CCCc2ccc3c(n2)NCCC3)C1 [Compound 251-B] | < 100 | < 100 |
| O=C(NC[C@@H](C(=O)O)c1cccc(C(F)(F)F)c1)[C@@H]1CCCN(CCCc2ccc3c(n2)NCCC3)C1 [Compound 252-A, 3-((R)-1-(3-(5,6,7,8-tetrahydro-1,8-naphthyridin-2-yl)propyl)piperidine-3-carboxamido)-2-(3-(trifluoromethyl)phenyl)propanoic acid] | 100 to 1000 | < 100 |
| O=C(NC[C@H](C(=O)O)c1cccc(C(F)(F)F)c1)[C@@H]1CCCN(CCCc2ccc3c(n2)NCCC3)C1 [Compound 252-B, 3-((R)-1-(3-(5,6,7,8-tetrahydro-1,8-naphthyridin-2-yl)propyl)piperidine-3-carboxamido)-2-(3-(trifluoromethyl)phenyl)propanoic acid] | < 100 | > 1000 |
| O=C(NC[C@H](C(=O)O)c1cccc2c1CCCC2)[C@@H]1CCCN(CCCc2ccc3c(n2)NCCC3)C1 [Compound 253-A, 3-((R)-1-(3-(5,6,7,8-tetrahydro-1,8-naphthyridin-2-yl)propyl)piperidine-3-carboxamido)-2-(5,6,7,8-tetrahydronaphthalen-1-yl)propanoic acid] | < 100 | < 100 |
| O=C(NC[C@@H](C(=O)O)c1cccc2c1CCCC2)[C@@H]1CCCN(CCCc2ccc3c(n2)NCCC3)C1 [Compound 253-B, 3-((R)-1-(3-(5,6,7,8-tetrahydro-1,8-naphthyridin-2-yl)propyl)piperidine-3-carboxamido)-2-(5,6,7,8-tetrahydronaphthalen-1-yl)propanoic acid] | > 1000 | 100 to 1000 |
| O=C(NC[C@H](C(=O)O)c1ccc2c(c1)CCC2)[C@@H]1CCCN(CCCc2ccc3c(n2)NCCC3)C1 [Compound 254-A, 2-(2,3-dihydro-1H-inden-5-yl)-3-((R)-1-(3-(5,6,7,8-tetrahydro-1,8-naphthyridin-2-yl)propyl)piperidine-3-carboxamido)propanoic acid] | 100 to 1000 | < 100 |
| O=C(NC[C@@H](C(=O)O)c1ccc2c(c1)CCC2)[C@@H]1CCCN(CCCc2ccc3c(n2)NCCC3)C1 [Compound 254-B, 2-(2,3-dihydro-1H-inden-5-yl)-3-((R)-1-(3-(5,6,7,8-tetrahydro-1,8-naphthyridin-2-yl)propyl)piperidine-3-carboxamido)propanoic acid] | < 100 | < 100 |
| O=C(O)C(CNC(=O)[C@@H]1CCCN(CCCc2ccc3c(n2)NCCC3)C1)c1cccc(Br)c1 (stereo partly drawn) [Compound 255, 2-(3-bromophenyl)-3-((R)-1-(3-(5,6,7,8-tetrahydro-1,8-naphthyridin-2-yl)propyl)piperidine-3-carboxamido)propanoic acid hydrochloride] | < 100 | < 100 |
